Test results: ChEMBL document CHEMBL1201862, “PubChem BioAssay data set” (2004)
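Following 48 hours of exposure in 96-well plates, responses at five concentrations were used to interpolate endpoints linearly. Abbreviation: GI50, concentration required for 50% inhibition of growth.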 Active and inactive are the calls of the source. No stated cut-off is given here; in the data, active = GI50 up to about 1.1 µM and inactive = higher. Square brackets hold non-standard residues; d marks the D form. Peptide text beside a SMILES is read from it. * marks the point of attachment. Boc = CC(C)(C)OC(=O)*; OBn = c1ccc(CO*)cc1

Tests used:
Experiment in all cases: inhibition of tumour cell growth, NCI panel, 48 h
OVCAR-8 = system: OVCAR-8
SK-MEL-5 = system: SK-MEL-5
HT-29 = system: HT-29
SF-268 = system: SF-268
CCRF-CEM = system: CCRF-CEM
NCI-H23 = system: NCI-H23
OVCAR-3 = system: OVCAR-3
MOLT-4 = system: MOLT-4
CAKI-1 = system: CAKI-1
U-251 = system: U-251
COLO 205 = system: COLO 205
A549 = system: A549
OVCAR-4 = system: OVCAR-4
SK-MEL-2 = system: SK-MEL-2
T47D = system: T47D
MDA-MB-435 = system: MDA-MB-435
RXF 393 = system: RXF 393
K562 = system: K562
HCC 2998 = system: HCC 2998
SK-OV-3 = system: SK-OV-3
SF-295 = system: SF-295
M14 = system: M14
SK-MEL-28 = system: SK-MEL-28
KM12 = system: KM12
NCI-H226 = system: NCI-H226
HCT-116 = system: HCT-116
UO-31 = system: UO-31
PC-3 = system: PC-3
SN12C = system: SN12C
Hs-578T = system: Hs-578T
OVCAR-5 = system: OVCAR-5
IGROV-1 = system: IGROV-1
A498 = system: A498
MDA-N = system: MDA-N
TK-10 = system: TK-10
MDA-MB-231 = system: MDA-MB-231
SR = system: SR
UACC-62 = system: UACC-62
HOP-92 = system: HOP-92
HCT-15 = system: HCT-15
EKVX = system: EKVX
RPMI-8226 = system: RPMI-8226
SNB-75 = system: SNB-75
HOP-62 = system: HOP-62
ACHN = system: ACHN
786-0 = system: 786-0
HL-60 = system: HL-60
MCF7 = system: MCF7
SNB-19 = system: SNB-19
NCI-H460 = system: NCI-H460
DU-145 = system: DU-145
UACC-257 = system: UACC-257
Malme-3M = system: Malme-3M
SW-620 = system: SW-620
BT-549 = system: BT-549
NCI/ADR-RES = system: NCI/ADR-RES
SF-539 = system: SF-539
NCI-H522 = system: NCI-H522
LOX IMVI = system: LOX IMVI

## C/C(=N/NC(=O)c1ccccc1Nc1ccccc1C(=O)N/N=C(\C)c1ccc(C)cc1)c1ccc(C)cc1
OVCAR-8
  GI50: > 100 µM (inactive)
SK-MEL-5
  GI50: 42.1 µM (inactive)
HT-29
  GI50: > 100 µM (inactive)
SF-268
  GI50: > 100 µM (inactive)
CCRF-CEM
  GI50: 25.2 µM (inactive)
NCI-H23
  GI50: > 100 µM (inactive)
OVCAR-3
  GI50: 4.62 µM (inactive)
MOLT-4
  GI50: 37.8 µM (inactive)
CAKI-1
  GI50: > 100 µM (inactive)
U-251
  GI50: > 100 µM (inactive)
COLO 205
  GI50: 83.6 µM (inactive)
A549
  GI50: 46.3 µM (inactive)
OVCAR-4
  GI50: 32.1 µM (inactive)
SK-MEL-2
  GI50: > 100 µM (inactive)
T47D
  GI50: > 100 µM (inactive)
MDA-MB-435
  GI50: > 100 µM (inactive)
RXF 393
  GI50: 12.2 µM (inactive)
K562
  GI50: 57.4 µM (inactive)
HCC 2998
  GI50: 10.9 µM (inactive)
SK-OV-3
  GI50: > 100 µM (inactive)
SF-295
  GI50: 22.9 µM (inactive)
M14
  GI50: 47 µM (inactive)
SK-MEL-28
  GI50: > 100 µM (inactive)
KM12
  GI50: 74.8 µM (inactive)
NCI-H226
  GI50: > 100 µM (inactive)
HCT-116
  GI50: 53.3 µM (inactive)
UO-31
  GI50: > 100 µM (inactive)
PC-3
  GI50: 41.7 µM (inactive)
SN12C
  GI50: > 100 µM (inactive)
Hs-578T
  GI50: > 100 µM (inactive)
OVCAR-5
  GI50: > 100 µM (inactive)
IGROV-1
  GI50: > 100 µM (inactive)
A498
  GI50: > 100 µM (inactive)
MDA-N
  GI50: > 100 µM (inactive)
TK-10
  GI50: 18.6 µM (inactive)
MDA-MB-231
  GI50: 79.1 µM (inactive)
SR
  GI50: > 100 µM (inactive)
UACC-62
  GI50: 31.8 µM (inactive)
HOP-92
  GI50: > 100 µM (inactive)
HCT-15
  GI50: 55 µM
EKVX
  GI50: > 100 µM (inactive)
RPMI-8226
  GI50: > 100 µM (inactive)
SNB-75
  GI50: > 100 µM (inactive)
HOP-62
  GI50: 11.4 µM (inactive)
ACHN
  GI50: 23.9 µM (inactive)
786-0
  GI50: > 100 µM (inactive)
HL-60
  GI50: > 100 µM (inactive)
MCF7
  GI50: 14.6 µM (inactive)
SNB-19
  GI50: > 100 µM (inactive)
NCI-H460
  GI50: 15.5 µM (inactive)
DU-145
  GI50: > 100 µM (inactive)
UACC-257
  GI50: > 100 µM (inactive)
Malme-3M
  GI50: 32.5 µM (inactive)
SW-620
  GI50: > 100 µM (inactive)
BT-549
  GI50: > 100 µM (inactive)
NCI/ADR-RES
  GI50: > 100 µM (inactive)

## CCOC(=O)/C=C(/C(=O)OCC)n1ccc(=O)n(Cc2cnnn2CCCCOC(C)=O)c1=O
OVCAR-8
  GI50: > 100 µM (inactive)
SK-MEL-5
  GI50: > 100 µM (inactive)
HT-29
  GI50: > 100 µM (inactive)
SF-268
  GI50: > 100 µM (inactive)
CCRF-CEM
  GI50: 2.2 µM (inactive)
NCI-H23
  GI50: > 100 µM (inactive)
OVCAR-3
  GI50: > 100 µM (inactive)
MOLT-4
  GI50: 20.4 µM (inactive)
CAKI-1
  GI50: 30.2 µM (inactive)
U-251
  GI50: > 100 µM (inactive)
COLO 205
  GI50: 19.1 µM (inactive)
A549
  GI50: > 100 µM (inactive)
OVCAR-4
  GI50: > 100 µM (inactive)
SK-MEL-2
  GI50: > 100 µM (inactive)
T47D
  GI50: > 100 µM (inactive)
MDA-MB-435
  GI50: > 100 µM (inactive)
RXF 393
  GI50: > 100 µM (inactive)
K562
  GI50: 70.1 µM (inactive)
HCC 2998
  GI50: > 100 µM (inactive)
SK-OV-3
  GI50: > 100 µM (inactive)
SF-295
  GI50: > 100 µM (inactive)
SK-MEL-28
  GI50: > 100 µM (inactive)
KM12
  GI50: > 100 µM (inactive)
NCI-H226
  GI50: > 100 µM (inactive)
HCT-116
  GI50: > 100 µM (inactive)
UO-31
  GI50: > 100 µM (inactive)
PC-3
  GI50: > 100 µM (inactive)
SN12C
  GI50: > 100 µM (inactive)
Hs-578T
  GI50: > 100 µM (inactive)
OVCAR-5
  GI50: > 100 µM (inactive)
IGROV-1
  GI50: > 100 µM (inactive)
MDA-N
  GI50: > 100 µM (inactive)
TK-10
  GI50: 32.8 µM (inactive)
MDA-MB-231
  GI50: > 100 µM (inactive)
SR
  GI50: 27.9 µM (inactive)
UACC-62
  GI50: > 100 µM (inactive)
SF-539
  GI50: 36.6 µM (inactive)
HOP-92
  GI50: 0.0305 µM (active)
HCT-15
  GI50: > 10 µM
EKVX
  GI50: 63.8 µM (inactive)
RPMI-8226
  GI50: 59.2 µM (inactive)
SNB-75
  GI50: > 100 µM (inactive)
HOP-62
  GI50: > 100 µM (inactive)
ACHN
  GI50: 51.2 µM (inactive)
786-0
  GI50: 18.5 µM (inactive)
NCI-H522
  GI50: 20.7 µM (inactive)
MCF7
  GI50: 52 µM (inactive)
SNB-19
  GI50: > 100 µM (inactive)
NCI-H460
  GI50: > 100 µM (inactive)
LOX IMVI
  GI50: > 100 µM (inactive)
DU-145
  GI50: > 100 µM (inactive)
UACC-257
  GI50: > 100 µM (inactive)
SW-620
  GI50: 20.1 µM (inactive)
BT-549
  GI50: 60.3 µM (inactive)
NCI/ADR-RES
  GI50: > 100 µM (inactive)

## C[C@@H](NC(=O)CNC(=O)OC(C)(C)C)C(=O)N[C@@H](Cc1ccccc1)C(=O)OCc1ccccc1 (Boc-Gly-[dA]-Phe-OBn)
OVCAR-8
  GI50: > 100 µM (inactive)
SK-MEL-5
  GI50: 22.8 µM (inactive)
HT-29
  GI50: 90.4 µM (inactive)
SF-268
  GI50: 89.1 µM (inactive)
CCRF-CEM
  GI50: 19.5 µM (inactive)
NCI-H23
  GI50: > 100 µM (inactive)
MOLT-4
  GI50: 15 µM (inactive)
CAKI-1
  GI50: > 100 µM (inactive)
U-251
  GI50: 71.8 µM (inactive)
COLO 205
  GI50: 18.2 µM (inactive)
A549
  GI50: > 100 µM (inactive)
OVCAR-4
  GI50: > 100 µM (inactive)
SK-MEL-2
  GI50: 26.7 µM (inactive)
T47D
  GI50: 63.4 µM (inactive)
MDA-MB-435
  GI50: 32.4 µM (inactive)
RXF 393
  GI50: 32 µM (inactive)
K562
  GI50: 23.1 µM (inactive)
SK-OV-3
  GI50: > 100 µM (inactive)
SF-295
  GI50: > 100 µM (inactive)
M14
  GI50: 19.8 µM (inactive)
SK-MEL-28
  GI50: 20.1 µM (inactive)
KM12
  GI50: > 100 µM (inactive)
NCI-H226
  GI50: 51.1 µM (inactive)
HCT-116
  GI50: 47.3 µM (inactive)
UO-31
  GI50: 51.2 µM (inactive)
PC-3
  GI50: 49 µM (inactive)
SN12C
  GI50: > 100 µM (inactive)
Hs-578T
  GI50: 22.3 µM (inactive)
OVCAR-5
  GI50: > 100 µM (inactive)
IGROV-1
  GI50: 67.9 µM (inactive)
MDA-N
  GI50: 36.7 µM (inactive)
TK-10
  GI50: > 100 µM (inactive)
MDA-MB-231
  GI50: 37.1 µM (inactive)
SR
  GI50: 19.5 µM (inactive)
UACC-62
  GI50: 34 µM (inactive)
SF-539
  GI50: > 100 µM (inactive)
HOP-92
  GI50: 17.8 µM (inactive)
HCT-15
  GI50: > 100 µM
EKVX
  GI50: 97.7 µM (inactive)
SNB-75
  GI50: 43.9 µM (inactive)
ACHN
  GI50: 57.9 µM (inactive)
786-0
  GI50: 84.7 µM (inactive)
HL-60
  GI50: 35.1 µM (inactive)
NCI-H522
  GI50: 26.3 µM (inactive)
MCF7
  GI50: > 100 µM (inactive)
SNB-19
  GI50: > 100 µM (inactive)
LOX IMVI
  GI50: 20.6 µM (inactive)
DU-145
  GI50: > 100 µM (inactive)
UACC-257
  GI50: 33.7 µM (inactive)
Malme-3M
  GI50: 16.2 µM (inactive)
SW-620
  GI50: 61.7 µM (inactive)
BT-549
  GI50: > 100 µM (inactive)
NCI/ADR-RES
  GI50: > 100 µM (inactive)
